Paper PMC5133935, “Hydrostatin-TL1, an Anti-Inflammatory Active Peptide from the Venom Gland of Hydrophis cyanocinctus in the South China Sea” (International Journal of Molecular Sciences, 2016)
“Also recorded” adds a separate entry of the source. No end group written: not given here.

Columns and labels:
[1] = system: LPS-induced acute shock in C57BL/6 mice; experiment: LPS-induced acute shock, survival; format: in vivo, mouse; settings: for survival rate: within 96 h, LPS + vehicle all died within 30 h, n = 8
Source text: (§1) The H. cyanocinctus specimens were captured during September 2005 in the South China Sea near Guangdong Province, People’s Republic of China. After collection, the snakes were killed, and the venom glands were isolated and immediately frozen in liquid nitrogen until use. HEK-293 human embryonic kidney and L929 mouse fibroblast cell lines were obtained from ATCC and cultured in Dulbecco’s modified Eagle’s medium (DMEM, Sigma-Aldrich, St. Louis, MO, USA) containing 10% (v/v) heat-inactivated fetal bovine serum (FBS, Gibco, BRL, Grand Island, NY, USA) at 37 °C in an atmosphere of 5% CO2. The BLT5403 E. coli strain (used as the phage host strain) was from Novagen (Merck) and was cultured at 37 °C for propagation. The specific pathogen-free (SPF) male BALB/c and C57BL/6 mice (both 6–8 weeks old), weighing 20 ± 2 g were purchased from Shanghai SLAC Laboratory Animal Co., Ltd. (Shanghai, China). The mice were housed in animal facilities with 50% humidity under a 12-h light-dark cycle, fed a standard pellet diet, and provided with tap water ad libitum. The animal experimental protocols in this research, including venom gland isolation and the mouse study, were approved by the Animal Care and Use Committee of the Second Military Medical University.
(§2) The LPS-induced acute shock model was established in male C57BL/6 mice (6–8 weeks old) that were randomly allocated to five groups. LPS was administered (15 mg/kg body weight) to induce acute shock. The LPS- or normal saline-treated mice were injected with 100 μL of normal saline with or without LPS intraperitoneally, while the H-TL1 and LPS-treated mice were each administered H-TL1 at three doses of 20, 40, and 80 μg/kg 1, 3, and 5 h after the LPS injection (Figure 5A). The mice were observed every 4 h to evaluate mortality.

[2] = system: TNF-α/TNFR2; experiment: Competitive ELISA, inhibition of TNF-α binding to TNFR2; set-up: species or system human; settings: sTNFR2-coated plate, H-TL1 0–1 μM, n = 3
[3] = system: mRNA expression of pro-inflammatory cytokines in colon tissue of DSS mice; experiment: Real-time PCR, cytokine mRNA in DSS-induced colitis; format: in vivo, mouse; settings: H-TL1 1 mg/kg; DSS induced 1.73- to 41-fold increases; n = 3
Description: Total RNA was extracted from colon tissue specimens or cells using Trizol reagent (Takara) according to the manufacturer’s instructions and was then reverse transcribed using random primers. Real-time PCR was performed on a StepOne Real-Time PCR System (Applied Biosystems, Foster City, CA, USA) to analyze the mRNA expression levels of IL-8, TNF-α, IL-1β, IL-6, VCAM-1, and ICAM-1. The relative fold changes of target gene expression were comparatively quantified by the 2^−ΔΔCt method. GAPDH was chosen as the internal control gene, and samples without treatment were designated as the comparing reference. Primers used in this study were based on published sequences.
To induce colitis, 6–8 week old male BALB/c mice were administered 2.5% DSS solution in their drinking water for 7–8 consecutive days, ad libitum. Importantly, 30–40 kDa DSS was used to establish the animal model in this study because it is known to induce more severe colitis than 5 and 500 kDa DSS [37]. The mice were concomitantly administered H-TL1 (0.5 or 1 mg/kg) once daily for 7–8 consecutive days by intraperitoneal injection. Establishment of the DSS-induced colitis was evidenced by an increase in DAI, with associated weight loss, loose stool consistency, and presence of blood in the feces. DAI was monitored during the entire experiment and was assessed according to the method described in Table 1.

[4] = system: HEK-293 cells, TNF-α-mediated NF-κB and MAPKs signaling; experiment: Western blot, TNF-α-induced phosphorylation in HEK-293 cells; format: cell-based, human; settings: TNF-α 20 ng/mL, 10 min
Source text: The NF-κB and MAPKs pathways are key signaling pathways of TNF-α-mediated inflammation. Therefore, we analyzed the mechanisms underlying H-TL1-induced inhibition of TNF-α-mediated inflammation by Western blotting in HEK-293 cells. […] To identify the specific effects of H-TL1 on TNF-α downstream signaling, we induced IL-1β as a potent activator of NF-κB that is specific to that pathway.
as §1
For Western blotting, the cell or tissue specimen extracts were resolved in a 10% SDS-PAGE gel, and then the separated proteins were transferred to a nitrocellulose filter membrane. The antigens were detected by using specific antibodies against total and phosphorylated IκB, p38, ERK, and JNK followed by incubation with the respective secondary antibodies. GAPDH was simultaneously detected as the control to compare the protein loading in each lane. The mouse monoclonal anti-IκB, mouse monoclonal anti-p-IκB (Ser32/36), rabbit monoclonal anti-ERK, and rabbit monoclonal anti-p-ERK (Thr202/Tyr204) antibodies were from Cell Signaling Technologies (Beverly, MA, USA). The mouse polyclonal anti-p-p38 (Thr180/Tyr182), rabbit polyclonal anti-p38, rabbit monoclonal anti-p-JNK (Thr183/Tyr185), and mouse monoclonal anti-JNK antibodies were from Thermo Fisher Scientific (Rockford, IL, USA). The rabbit monoclonal anti-GAPDH antibody was from Santa Cruz Biotechnology (Santa Cruz, CA, USA), and the fluorescent-labeled secondary antibodies were from Li-COR Biosciences (Lincoln, NE, USA).

[5] = system: LPS-induced lung tissue damage, C57BL/6 mice; experiment: Lung histopathology in LPS-induced acute shock; format: in vivo, mouse; settings: 12 h after LPS; H&E 200×; n = 8
Description: as §2
To assess lung damage, lung tissues were excised, inflated with 4% neutral formalin, and H&E stained 12 h following LPS injection. The lung parenchyma was examined by light microscopy and graded based on the degree of congestion, edema, inflammation, and hemorrhage. Each characteristic was scored on a scale of 0 to 3 (0, absent; 1, light; 2, moderate; and 3, strong).

**Q.** What does the source list for ATSKPSLKC-OH [H-TL1]?
**A.** survival rate ([1]; H-TL1 40 μg/kg at 1, 3, and 5 h after LPS 15 mg/kg i.p., * p < 0.05): 37.5%; survival rate ([1]; H-TL1 80 μg/kg at 1, 3, and 5 h after LPS 15 mg/kg i.p., *** p < 0.001): 62.5%; protection from LPS-induced acute shock, dose dependence ([1]; H-TL1 20, 40, and 80 μg/kg, LPS 15 mg/kg i.p.): protected the mice from LPS-induced acute shock in a dose-dependent manner; inhibition of TNF-α/TNFR2 binding, in words [2]: had little impact on TNF-α/TNFR2 interactions; also recorded: the percent inhibition had no apparent linear relation to the H-TL1 concentration; effect on the binding of TNF-α with TNFR2 (inhibition) ([2]; hrTNF-α 20 ng/mL): approximately 20%; mRNA expression of TNF-α, IFN-γ, IL-1β, and IL-6 in DSS colitis [3]: significantly reduced these effects; concentration inhibiting TNF-α-mediated ERK (Thr202/Tyr204) phosphorylation [4]: 0.8 to 1.6 µM; concentration inhibiting TNF-α-mediated p38 (Thr180/Tyr182) phosphorylation [4]: 0.8 to 1.6 µM; concentration suppressing TNF-α-mediated IκB (Ser32/36) phosphorylation [4]: 0.4 to 1.6 µM; concentration suppressing TNF-α-mediated JNK (Thr183/Tyr185) phosphorylation [4]: 0.4 to 1.6 µM; lung parenchymal damage and inflammatory cell infiltration [5]: markedly reduced lung parenchymal damage and inflammatory cell infiltration
